We go through one molecule from US20050037975A1, “Method for treatment of glutamate related disorders” (priority 1997, published 2005).

One experiment has as its target T1, mouse liver low Km ALDH (Mus musculus, UniProt P47738).
T1 construct: Liver aldehyde dehydrogenase was extracted and assayed as previously described; from tissue; host or cells: liver of treated mice
T1 sequence (P47738 20-519): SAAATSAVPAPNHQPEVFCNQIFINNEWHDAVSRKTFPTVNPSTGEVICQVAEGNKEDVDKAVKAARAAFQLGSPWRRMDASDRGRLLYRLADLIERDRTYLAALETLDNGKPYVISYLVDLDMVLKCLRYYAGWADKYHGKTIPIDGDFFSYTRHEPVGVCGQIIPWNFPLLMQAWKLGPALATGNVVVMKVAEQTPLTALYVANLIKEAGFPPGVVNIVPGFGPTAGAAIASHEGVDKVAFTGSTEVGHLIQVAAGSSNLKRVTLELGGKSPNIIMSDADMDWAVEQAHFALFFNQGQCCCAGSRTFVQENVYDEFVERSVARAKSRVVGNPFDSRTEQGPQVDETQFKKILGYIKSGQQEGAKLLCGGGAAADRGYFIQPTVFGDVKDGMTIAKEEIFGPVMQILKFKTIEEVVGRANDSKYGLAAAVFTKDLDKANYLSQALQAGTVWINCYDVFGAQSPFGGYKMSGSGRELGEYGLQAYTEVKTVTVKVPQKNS
Kind of experiment: In vivo inhibition of mouse liver aldehyde dehydrogenase. The procedure: Reagents—DETC-MeSO was synthesized by the method of Hart and Faiman (B. W. Hart et al., Biochem. Pharmacol.), 43, 403-406 (1992). Carbamoylated glutathione, S-(N,N-diethylcarbamoyl)glutathione (DETC-GS), was prepared essentially as described by Jin et al. (L. Jin, supra). The structures and purity of DETC-MeSO and DETC-GS were confirmed by 300 MHz NMR and FAB-tandem mass spectrometry. A QE300 NMR spectrometer (General Electric, Fremont, Calif.) and Autospec-Q Tandem Hybrid mass spectrometer (Fiscons/VG Analytical Limited, Manchester, England) were employed for these analyses. Liver aldehyde dehydrogenase was extracted and assayed as previously described (B. W. Hart et al., supra). MetSOX monosodium L-glutamate, glycine, glutathione, and NMDA were purchased from Sigma Chemical Company (St. Louis, Mo.). L-[3-^3H]Glutamate (46 Ci/mmol) was obtained from Amerisham Life Science (Buckinghamshire, England).

The subject of experiment [1] is oxygen-induced seizures (5 ATA O2). Nature of the experiment: Hyperbaric oxygen-induced seizures in mice. The experiment is classed as in vivo. The procedure: Animals—Male Swiss Webster mice (20-30 g) or male Sprague-Dawley rats (250-300 g) were used. All that employed animals were conducted in strict compliance with the NIH guidelines on animal use and institutional regulations concerning animal experimentation. Animals were exposed to hyperbaric oxygen in a specify designed press chamber as previously described (M. D. Faiman et al., Biochem. Pharmacol., 20, 3049-3067 (1971); M. D. Faiman et al. Aerosp. Med.,45, 29032.(1974)). The time to first clonic-tonic seizure after brining animals to a final pressure of five atmospheres of 100% oxygen or after intraperitoneal injection of convulsants was noted by. criteria outlined previously (M. D. Faiman et al. (1971), supra M. D. Faiman et al. (1974), supra). Unless otherwise specified, the ability of DETC-MeSO to prevent seizures was tested by intraperitoneal injection of 5.2 mg/kg of DETC-MeSO 1-2 hours prior to bringing the animal to a final pressure of 5 atmospheres of 100% oxygen or intraperitoneal injection of N-methyl-D-asparate (NMA) (125 mg/kg) r L-methionine sulfoximine (MetSOX) (250 mg/kg). Evaluation of the statistics for whole animal experiments or for changes in brain glutamate binding after administration of DETC-MeSO was conducted by use of the program GraphPAD InStat from Graph PAD Software (San Diego, Calif.).

Experiment [2] has as its system brain glutamate receptors (synaptic membranes). Nature of the experiment: Glutamate binding to synaptic membranes isolated from treated mice. The class given is in vivo, mouse. The procedure: Binding Studies—Synaptic membranes (100 μg protein) were isolated (Y. H. Lee et al., J. Neurosci. Res. 40, 797-806 (1995)) form whole brain homogenate of male Swiss Webster mice and were incubated in 0.1 mM L-glutamate for 30 minutes at 25° C. After addition of 50 nM of [^3H]glutamate, incubation was continued for an additional 45 minutes. Reactions were terminated by centrifugation at 4° C. to separate membrane-bound from free radioactivity. Nonspecific binding (radioactivity bound in the presence of 0.5 mM unlabeled glutamate) averages: 20-30% of total radioactivity bound. The rate (k) and maximum percent blockage of glutamate binding (M) by DETC-MeSO (1) during the incubation time (t) was determined by fitting the equation [% inhibition]=M(1−e^−kh) to these day by use of the program Grafit (Erithicus Software Ltd.). This equation was derived for first-order inactivation by a group specific reagent that gives a partial effect. If “A” is the percent of binding activity that remains after extensive exposure (t=of the receptor to excess DETC-MeSO, then M=100−A)e^−kh+A; substituting (100−M) for “A” and [100−% inhibition] for “a” in this equation gives the one employed for purposes of data analyses. […] A second equation was employed in the analysis of binding data that defines partial, irreversible inactivation of two distinct groups of receptors [% inhibition]=M1(1−e^−k1^IT)+M2(1−e^−k1^IT), where M1 and M2 are the maximum amount of inhibition obtained for complete modification of each receptor population and k1 and k2 are the rate constants for these modifications, respectively.
Synaptic membranes were prepared from the brains of mice injected with DETC-MeSO (5.2 mg/kg, i.p.). The ability of synaptic membrane preparations isolated from DETC-MeSO-treated mice to bind glutamate was compared with similar preparations isolated from control animals. FIG. 3(A) illustrates the results obtained from synaptic membranes prepared from brains of mice killed two hours after a single dose of DETC-MeSO, or two hours after the last injection of multiple consecutive doses (5.2 mg/kg, i.p., daily for seven days). Either single or multiple dosing with DETC-MeSO reduced the capacity of synaptic membranes to bind glutamate by approximately 50%, the maximum effect obtained in vitro (FIG. 3). Each bar represents the average of results obtained from four animals and the error bars are for one standard deviation.

SMILES strings stand for the structures. Marks after values point to notes of the source that are not given here.

For `CCN(CC)C(=O)[S+](C)[O-]` (stereo not drawn) [DETC-MeSO, S-Methyl-N,N-Diethylthiolcarbamate Sulfoxide], the “inactivation of ALDH” value at mouse liver low Km ALDH (5.2 mg/kg i.p. in mice, in 1 hour) was 80%. Moreover, the “effective concentration at its site of action in vivo” value at mouse liver low Km ALDH (5.2 mg/kg i.p. in mice, worked out from inactivation rate) is “about 11 μM”. Further, the inhibition (in general, how much of the control response was suppressed) at 2.6 mg/kg at mouse liver low Km ALDH (mouse, ip, 2.6 mg/kg i.p., read-out: inhibition of mouse liver enzyme (ALDH)) was found to be 84%. At mouse liver low Km ALDH (mouse, 30 μmol/kg intravenous, mice), this molecule came in with an inhibition at 30 µmol/kg of 44.9 ± 1%. Besides, the “effect on oxygen-induced seizures” value in experiment [1] (5.2 mg/kg i.p. 2 hours before 5 atmospheres of 100% oxygen, mice) is recorded as “prevented the seizures”. Also, the “number of animals that exhibited the effect/total number of animals in the group” value in experiment [1] (5 ATA 100% O2, mice) is on record as “(0/5)^a”. Besides, the “mean time to seizure” value in experiment [1] (5 ATA 100% O2, mice, 5.2 mg/kg i.p. prior, observation one hour) is given as >60^a min. In addition, the “irreversible brain glutamate receptor blockage” value in experiment [2] (30 μmol/kg intravenous, mice) is 38.2±1.6%. Also, the “reduction of capacity of synaptic membranes to bind glutamate” value is on record as “approximately 50%” in experiment [2] (5.2 mg/kg i.p. daily for seven days, killed two hours after last injection) and “approximately 50%” in experiment [2] (single dose 5.2 mg/kg i.p., killed two hours after). Further, the “inhibition of glutamate binding” value in experiment [2] (single dose 5.2 mg/kg i.p., killed 24 hours after) is listed as “less inhibition”.
